The target in the first test is T1, rhJAK3 (Homo sapiens, UniProt P52333).
T1 construct: recombinant purified GST-tagged catalytic domain for each enzyme; purchased Invitrogen PV3855
T1 sequence (P52333 822-1111 limits assumed): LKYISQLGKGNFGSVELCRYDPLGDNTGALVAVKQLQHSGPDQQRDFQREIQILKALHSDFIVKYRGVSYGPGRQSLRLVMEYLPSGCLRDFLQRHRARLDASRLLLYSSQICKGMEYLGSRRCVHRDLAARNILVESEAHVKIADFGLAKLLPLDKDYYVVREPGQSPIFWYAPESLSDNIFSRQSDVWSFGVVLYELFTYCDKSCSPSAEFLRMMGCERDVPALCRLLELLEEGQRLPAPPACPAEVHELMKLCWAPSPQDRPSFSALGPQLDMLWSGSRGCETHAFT
As to the kind of experiment: JAK Biochemical HTRF Assay (JAK3). As to conditions: recombinant purified GST-tagged catalytic domain, HTRF format, [ATP] 1.7 μM; read-out: JAK3 IC50. As for the experimental part: JAK Biochemical HTRF Assay Protocol
The ability of compounds to inhibit the activity of JAK1, JAK2, JAK3, and TYK2 was measured using a recombinant purified GST-tagged catalytic domain for each enzyme (Invitrogen JAK1 #PV4774, JAK2 #PV4210, JAK3 #PV3855, TYK2 #PV4790) in an HTRF format biochemical assay. The reactions employed a common peptide substrate, LCB-EQEDEPEGDYFEWLW-NH2. The basic assay protocol is as follows: First, […] of diluted compounds in DMSO were dispensed into the wells of a dry 384-well Black plate (Greiner #781076) using a Labcyte Echo 555 acoustic dispenser. Subsequent reagent additions employed a Thermo Multidrop Combi nL. Next, 10 μL of 2× enzyme and 2× substrate in 1× assay buffer (Invitrogen kinase buffer #PV3189, 2 mM DTT, 0.05% BSA) were added to the wells and preincubated for 30 min at room temperature to allow compound binding to equilibrate. After equilibration, 10 μl, of 2×ATP in 1× assay buffer was added to initiate the kinase reaction and the plates were incubated at room temperature for 120 min. At the end of the incubation, 20 μL of 2× stop buffer containing streptavidin-Dylight (Thermo #21845) and Eu-tagged pY20 antibody (Perkin Elmer #AD0067) was added to quench the reaction. Plates were further incubated 60 min at room temperature with shaking and then read on a Perkin Elmer Envision (λex=337 nm, λem=665 and 615 nm, TRF delay time=20 μs). HTRF signal=10,000*665 nm reading/615 nm reading. After normalization to untreated controls, the percent inhibition of the HTRF signal at each compound concentration was calculated. The plot of percent inhibition vs. the log of compound concentration was fit with a 4-parameter dose response equation to calculate IC50 values.
`COC(=O)c1cnc2[nH]cc(-c3cncc(N[C@@H](C(=O)NCC(F)(F)F)C(C)C)n3)c2c1` [Example 16-3, Methyl 3-[6-({(2R)-3-methyl-1-oxo-1-[(2,2,2-trifluoroethyl)amino]butan-2-yl}-amino)pyrazin-2-yl]-1H-pyrrolo[2,3-b]-pyridine-5-carboxylate]: the IC50 (usually the midpoint of a concentration-inhibition curve) lay within 1 to 10 nM.

Take `CC(C)[C@@H](Nc1cncc(-c2c[nH]c3ncc(F)cc23)n1)C(=O)NCC(F)(F)F` [Example 16-1, N^2-[6-(5-fluoro-1H-pyrrolo[2,3-b]pyridin-3-yl)pyrazin-2-yl]-N-(2,2,2-trifluoroethyl)-D-valinamide]: the IC50 fell in the range of 1 to 10 nM.

On to `CC(c1cccc(-c2cnc3[nH]cc(-c4cncc(N[C@H](C)C(=O)NCC(F)(F)F)n4)c3c2)c1)N1CCCC1` (stereo partly drawn) [Example 15-11, N^2-(6-{5-[3-(1-pyrrolidin-1-ylethyl)-phenyl]-1H-pyrrolo[2,3-b]pyridin-3-yl}pyrazin-2-yl)-N-(2,2,2-trifluoroethyl)-D-alaninamide], for which the IC50 was no more than 1 nM.

Turning to `CC(C)[C@@H](Nc1cncc(-c2c[nH]c3ncc(C#N)cc23)n1)C(=O)NCC(F)(F)F` [Example 16-2, N^2-[6-(5-cyano-1H-pyrrolo[2,3-b]pyridin-3-yl)pyrazin-2-yl]-N-(2,2,2-trifluoroethyl)-D-valinamide], the concentration for half-maximal inhibition (IC50) was no more than 1 nM.

`C[C@@H](Nc1cncc(-c2c[nH]c3ncc(-c4cccc(CN5CCOCC5)c4)cc23)n1)C(=O)NCC(F)(F)F` [Example 15-12, N^2-(6-{5-[3-(morpholin-4-yl-methyl)phenyl]-1H-pyrrolo[2,3-b]-pyridin-3-yl}pyrazin-2-yl)-N-(2,2,2-trifluoroethyl)-D-alaninamide]: the IC50 is no more than 1 nM.

Regarding `C[C@@H](Nc1cncc(-c2c[nH]c3ncc(-c4ccc(CC#N)nc4)cc23)n1)C(=O)NCC(F)(F)F` [Example 15-2, N^2-(6-{5-[6-(cyanomethyl)pyridin-3-yl]-1H-pyrrolo[2,3-b]pyridin-3-yl}-pyrazin-2-yl)-N-(2,2,2-trifluoroethyl)-D-alaninamide], the half-maximal inhibitory concentration (IC50) is no more than 1 nM.

Staying with this test, now noted: recombinant purified GST-tagged catalytic domain, HTRF format, [ATP] 1.7 μM; read-out: rhJAK3 IC50.
Regarding `C[C@@H](Nc1cncc(-c2c[nH]c3ncc(Cl)cc23)n1)C(=O)NCCCN1CCS(=O)(=O)CC1` [Example 2-20, N^2-[6-(5-chloro-1H-pyrrolo[2,3-b]-pyridin-3-yl)pyrazin-2-yl]-N-[3-(1,1-dioxidothiomorpholin-4-yl)-propyl]-D-alaninamide], the IC50 was 100 to 1000 nM.

As for `Cc1cc(CNC(=O)[C@@H](C)Nc2cncc(-c3c[nH]c4ncc(Cl)cc34)n2)no1` [Example 2-6, N^2-[6-(5-chloro-1H-pyrrolo[2,3-b]-pyridin-3-yl)pyrazin-2-yl]-N-[(5 - methylisoxazol-3-yl)methyl]-D-alaninamide], the IC50 was 100 to 1000 nM.

Consider `O=C(NCC(F)(F)F)[C@@H]1CC[C@H](Nc2cncc(-c3c[nH]c4ncc(Cl)cc34)n2)C1` [Example 1-3, (1R,3S)-3-{(6-(5-chloro-1H-pyrrolo[2,3-b]pyridin-3-yl)-pyrazin-2-yl]amino}-N-(2,2,2-trifluoroethyl)cyclopentane-carboxamide], for which the IC50 is 1 to 10 nM.

Take `O=C(Cn1ccc2ncc(-c3c[nH]c4ncc(Cl)cc34)nc21)NCC(F)(F)F` [Example 5, 2-[3-(5-Chloro-1H-pyrrolo[2,3-b]pyridin-3-yl)-5H-pyrrolo[2,3-b]pyrazin-5-yl]-N-(2,2,2-trifluoroethyl)acetamide]: the IC50 is 10 to 100 nM.

Take `C[C@@H](Nc1cncc(-c2c[nH]c3ncc(Cl)cc23)n1)C(=O)NCc1cccnc1Cl` [Example 2-5, N-[(2-chloropyridin-3-yl)methyl]-N^2-[6-(5-chloro-1H-pyrrolo[2,3-b]-pyridin-3-yl)pyrazin-2-yl]-D-alaninamide]: the IC50 fell in the range of 100 to 1000 nM.

For the molecule `C[C@@H](Nc1cncc(-c2c[nH]c3ncc(C4CC4)cc23)n1)C(=O)NCC(F)(F)F` [Example 13, N^2-[6-(5-cyclopropyl-1H-pyrrolo[2,3-b]pyridin-3-yl)pyrazin-2-yl]-N-(2,2,2-trifluoroethyl)-D-alaninamide], the IC50 is no more than 1 nM.

Regarding `C[C@@]1(C(=O)NCC(F)(F)F)CCN1c1cncc(-c2c[nH]c3ncc(Cl)cc23)n1` [Example 1-10, (2S)-1-[6-(5-chloro-1H-pyrrolo[2,3-b]pyridin-3-yl)pyrazin-2-yl]-2-methyl-N-(2,2,2-trifluoroethyl)azetidine-2-carboxamide], the 50% inhibitory concentration (IC50) fell in the range of 1 to 10 nM.

Turning to `O=C(NCC(F)(F)F)[C@@H]1CC[C@@H](Nc2cncc(-c3c[nH]c4ncc(Cl)cc34)n2)C1` [Example 1-1, (1R,3R)-3-{[6-(5-chloro-1H-pyrrolo[2,3-b]pyridin-3-yl)-pyrazin-2-yl]amino}-N-(2,2,2-trifluoroethyl)cyclopentane-carboxamide], the concentration for half-maximal inhibition (IC50) is 1 to 10 nM.

Consider `C[C@@H](Nc1cncc(-c2c[nH]c3ncc(Cl)cc23)n1)C(=O)NCC(=O)N(C)C` [Example 2-11, N-[6-(5-chloro-1H-pyrrolo[2,3-b]-pyridin-3-yl)pyrazin-2-yl]-D-alanyl-N,N-dimethylglycinamide], for which the IC50 lay in the range of 100 to 1000 nM.

On to `CN(C)C(=O)C1(Oc2cncc(-c3c[nH]c4ncc(Cl)cc34)n2)CC1` [Example 6-2, 1-{[6-(5-chloro-1H-pyrrolo[2,3-b]pyridin-3-yl)pyrazin-2-yl]oxy}-N,N-dimethyl-cyclopropanecarboxamide], for which the IC50 was 1 to 10 nM.

As for `C[C@@H](Nc1cncc(-c2c[nH]c3ncc(Cl)cc23)n1)C(=O)NCc1cccs1` [Example 2-10, N^2-[6-(5-chloro-1H-pyrrolo[2,3-b]-pyridin-3-yl)pyrazin-2-yl]-N-(thiophen-2-ylmethyl)-D-alaninamide], the 50% inhibitory concentration (IC50) is 100 to 1000 nM.

As to `O=C(NCC(F)(F)F)c1cncc(-c2c[nH]c3ncc(Cl)cc23)n1` [Example 7, 6-(5-chloro-1H-pyrrolo[2,3-b]pyridin-3-yl)-N-(2,2,2-trifluoroethyl)pyrazine-2-carboxamide], the IC50 was 100 to 1000 nM.

On to `O=C(NCC(F)(F)F)C1(Nc2cncc(-c3c[nH]c4ncc(Cl)cc34)n2)CCCC1` [Example 2-25, 1-{[6-(5-chloro-1H-pyrrolo[2,3-b]pyridin-3-yl)pyrazin-2-yl]amino}-N-(2,2,2-trifluoroethyl)cyclopentanecarboxamide], for which the IC50 is no more than 1 nM.

For `CS(=O)(=O)N1CCN(c2cncc(-c3c[nH]c4ncc(Cl)cc34)n2)[C@@H](C(=O)NCC(F)(F)F)C1` [Example 4, (2R)-1-[6-(5-Chloro-1H-pyrrolo[2,3-b]pyridin-3-yl)pyrazin-2-yl]-4-methylsulfonyl-N-(2,2,2-trifluoroethyl)piperazine-2-carboxamide], the IC50 lay in the range of 1 to 10 nM.

On to `O=C(NCC(F)(F)F)[C@H]1CC[C@@H](Nc2cncc(-c3c[nH]c4ncc(Cl)cc34)n2)C1` [Example 1-2, (1S,3R)-3-{[6-(5-chloro-1H-pyrrolo[2,3-b]pyridin-3-yl)-pyrazin-2-yl]amino}-N-(2,2,2-trifluoroethyl)cyclopentane-carboxamide], for which the IC50 was in the range of 1 to 10 nM.

With `C[C@@H](Nc1cncc(-c2c[nH]c3ncc(Cl)cc23)n1)C(=O)NC1CCC1` [Example 2-17, N^2-[6-(5-chloro-1H-pyrrolo[2,3-b]-pyridin-3-yl)pyrazin-2-yl]-N-cyclo-butyl-D-alaninamide], the IC50 lay in the range of 10 to 100 nM.

Turning to `CC1(C(=O)NCC(F)(F)F)CC1c1cncc(-c2c[nH]c3ncc(Cl)cc23)n1` (stereo not drawn) [Example 10-2, 2-[6-(5-chloro-1H-pyrrolo[2,3-b]pyridin-3-yl)pyrazin-2-yl]-1-methyl-N-(2,2,2-trifluoroethyl)cyclopropanecarboxamide], the IC50 lay within 1 to 10 nM.

On to `CCNC(=O)[C@H]1CCCN1c1cncc(-c2c[nH]c3ncc(Cl)cc23)n1` [Example 1-7, 1-[6-(5-chloro-1H-pyrrolo[2,3-b]pyridin-3-yl)pyrazin-2-yl]-N-ethyl-D-prolinamide], for which the IC50 was 1 to 10 nM.

As for `C[C@@H](Nc1cncc(-c2c[nH]c3ncc(Cl)cc23)n1)C(=O)NCCC1CC1` [Example 2-8, N^2-[6-(5-chloro-1H-pyrrolo[2,3-b]-pyridin-3-yl)pyrazin-2-yl]-N-(2-cyclopropylethyl)-D-alaninamide], the IC50 lay within 10 to 100 nM.

Regarding `CC(Cc1cncc(-c2c[nH]c3ncc(Cl)cc23)n1)C(=O)NCC(F)(F)F` (stereo not drawn) [Example 11, 3-[6-(5-chloro-1H-pyrrolo[2,3-b]pyridin-3-yl)pyrazin-2-yl]-2-methyl-N-(2,2,2-trifluoroethyl)-propanamide], the IC50 lay within 10 to 100 nM.

Turning to `C[C@@H](Nc1cncc(-c2c[nH]c3ncc(Cl)cc23)n1)C(=O)NCCc1cn[nH]c1` [Example 2-7, N^2-[6-(5-chloro-1H-pyrrolo[2,3-b]-pyridin-3-yl)pyrazin-2-yl]-N-[2-(1H-pyrazol-4-yl)ethyl]-D-alaninamide], the IC50 was in the range of 100 to 1000 nM.

These data come from US20130040933A1, “AZAINDOLES AS JANUS KINASE INHIBITORS” (priority 2010, published 2013).
